Data set [1] can be described thus: Elimination rate constant in CD1 mouse plasma assessed as baloxavir acid level at 15 mg/kg, po administered as single dose measured up to 24 hrs by LC-MS/MS analysis. To be noted: in vivo. Format: ADME, organism-based.
Data set [2] can be described thus: Elimination rate constant in CD1 mouse blood assessed as baloxavir acid level at 15 mg/kg, po administered as single dose measured up to 24 hrs by LC-MS/MS analysis. To be noted: in vivo. Format: ADME, organism-based.
A short description of data set [3]: Tmax in CD1 mouse blood assessed as baloxavir acid level at 15 mg/kg, po administered as single dose measured up to 24 hrs by LC-MS/MS analysis. Format: ADME, organism-based. The note with it: in vivo.
Data set [4] can be described thus: MRTlast in CD1 mouse blood assessed as baloxavir acid level at 15 mg/kg, po administered as single dose measured up to 24 hrs by LC-MS/MS analysis. Format: ADME, organism-based. To be noted: in vivo.
Data set [5] is described as follows: Elimination rate constant in CD1 mouse heart assessed as baloxavir acid level at 15 mg/kg, po administered as single dose measured up to 24 hrs by LC-MS/MS analysis. The note with it: in vivo. It is filed as ADME, organism-based.
Data set [6] can be described thus: Half life in CD1 mouse heart assessed as baloxavir acid level at 15 mg/kg, po administered as single dose measured up to 24 hrs by LC-MS/MS analysis. It is filed as ADME, organism-based. The note with it: in vivo.
Data set [7] is described as follows: Cmax in CD1 mouse trachea assessed as baloxavir acid level at 15 mg/kg, po administered as single dose measured after 4 hrs by LC-MS/MS analysis. More on the design: dose 15 mg/kg, route oral. To be noted: in vivo. It is filed as ADME, organism-based.
A short description of data set [8]: MRTlast in CD1 mouse small intestine assessed as baloxavir acid level at 15 mg/kg, po administered as single dose measured up to 24 hrs by LC-MS/MS analysis. It is filed as ADME, organism-based. The note with it: in vivo.
The nature of data set [9]: Half life in CD1 mouse brain assessed as baloxavir acid level at 15 mg/kg, po administered as single dose measured up to 24 hrs by LC-MS/MS analysis. Format: ADME, organism-based. The note with it: in vivo.
The nature of data set [10]: MRTlast in CD1 mouse brain assessed as baloxavir acid level at 15 mg/kg, po administered as single dose measured up to 24 hrs by LC-MS/MS analysis. To be noted: in vivo. It is filed as ADME, organism-based.
Data set [11] is described as follows: Ratio of AUClast in CD1 mouse brain to plasma assessed as baloxavir acid level at 15 mg/kg, po administered as single dose measured up to 24 hrs by LC-MS/MS analysis. It is filed as ADME, organism-based.
Data set [12] in a line: Cmax in CD1 mouse spleen assessed as baloxavir acid level at 15 mg/kg, po administered as single dose measured up to 24 hrs by LC-MS/MS analysis. Format: ADME, organism-based. More on the design: dose 15 mg/kg, route oral. To be noted: in vivo.
Data set [13] is described as follows: Acute toxicity in CD1 mouse assessed as effect on body weight at 2000 mg/kg, po measured for 2 weeks. It is filed as organism-based. The note with it: in vivo, 336 h.
Data set [14] in a line: Cmax in CD1 mouse plasma assessed as (12aR)-12-(Diphenylmethyl)-7-hydroxy-3,4,12,12a-tetrahydro-1H-[1,4]oxazino[3,4-c]pyrido[2,1-f ][1,2,4]triazine-6,8-dione level at 15 mg/kg, po administered as single dose by LC-MS/MS analysis. Also on record: dose 15 mg/kg, route oral. The note with it: in vivo. It is filed as ADME, organism-based.
Data set [15] in a line: Elimination rate constant in CD1 mouse plasma assessed as (12aR)-12-(Diphenylmethyl)-7-hydroxy-3,4,12,12a-tetrahydro-1H-[1,4]oxazino[3,4-c]pyrido[2,1-f ][1,2,4]triazine-6,8-dione level at 15 mg/kg, po administered as single dose measured up to 24 hrs by LC-MS/MS analysis. It is filed as ADME, organism-based. To be noted: in vivo.
Data set [16] in a line: Tmax in CD1 mouse plasma assessed as (12aR)-12-(Diphenylmethyl)-7-hydroxy-3,4,12,12a-tetrahydro-1H-[1,4]oxazino[3,4-c]pyrido[2,1-f ][1,2,4]triazine-6,8-dione level at 15 mg/kg, po administered as single dose measured up to 24 hrs by LC-MS/MS analysis. It is filed as ADME, organism-based. To be noted: in vivo.
Data set [17] can be described thus: AUCinfinity in CD1 mouse blood assessed as (12aR)-12-(Diphenylmethyl)-7-hydroxy-3,4,12,12a-tetrahydro-1H-[1,4]oxazino[3,4-c]pyrido[2,1-f ][1,2,4]triazine-6,8-dione level at 15 mg/kg, po administered as single dose measured up to 24 hrs by LC-MS/MS analysis. Also on record: dose 15 mg/kg, time infinity, route oral. To be noted: in vivo. Format: ADME, organism-based.

Data set [18] is described as follows: Ratio of AUClast in CD1 mouse liver to plasma assessed as (12aR)-12-(Diphenylmethyl)-7-hydroxy-3,4,12,12a-tetrahydro-1H-[1,4]oxazino[3,4-c]pyrido[2,1-f ][1,2,4]triazine-6,8-dione level at 15 mg/kg, po administered as single dose measured up to 24 hrs by LC-MS/MS analysis. Format: ADME, organism-based. To be noted: other tissue.
Data set [19] is described as follows: Half life in CD1 mouse kidney assessed as (12aR)-12-(Diphenylmethyl)-7-hydroxy-3,4,12,12a-tetrahydro-1H-[1,4]oxazino[3,4-c]pyrido[2,1-f ][1,2,4]triazine-6,8-dione level at 15 mg/kg, po administered as single dose measured up to 24 hrs by LC-MS/MS analysis. Format: ADME, organism-based. To be noted: in vivo.
Data set [20] in a line: Tmax in CD1 mouse kidney assessed as (12aR)-12-(Diphenylmethyl)-7-hydroxy-3,4,12,12a-tetrahydro-1H-[1,4]oxazino[3,4-c]pyrido[2,1-f ][1,2,4]triazine-6,8-dione level at 15 mg/kg, po administered as single dose measured up to 24 hrs by LC-MS/MS analysis. It is filed as ADME, organism-based. The note with it: in vivo.
Data set [21] in a line: Tmax in CD1 mouse heart assessed as (12aR)-12-(Diphenylmethyl)-7-hydroxy-3,4,12,12a-tetrahydro-1H-[1,4]oxazino[3,4-c]pyrido[2,1-f ][1,2,4]triazine-6,8-dione level at 15 mg/kg, po administered as single dose measured up to 24 hrs by LC-MS/MS analysis. Format: ADME, organism-based. To be noted: in vivo.
The nature of data set [22]: Elimination rate constant in CD1 mouse trachea assessed as (12aR)-12-(Diphenylmethyl)-7-hydroxy-3,4,12,12a-tetrahydro-1H-[1,4]oxazino[3,4-c]pyrido[2,1-f ][1,2,4]triazine-6,8-dione level at 15 mg/kg, po administered as single dose measured up to 24 hrs by LC-MS/MS analysis. Format: ADME, organism-based. To be noted: in vivo.
The nature of data set [23]: MRTlast in CD1 mouse trachea assessed as (12aR)-12-(Diphenylmethyl)-7-hydroxy-3,4,12,12a-tetrahydro-1H-[1,4]oxazino[3,4-c]pyrido[2,1-f ][1,2,4]triazine-6,8-dione level at 15 mg/kg, po administered as single dose measured up to 24 hrs by LC-MS/MS analysis. Format: ADME, organism-based. The note with it: in vivo.
Data set [24] in a line: AUClast in CD1 mouse brain assessed as (12aR)-12-(Diphenylmethyl)-7-hydroxy-3,4,12,12a-tetrahydro-1H-[1,4]oxazino[3,4-c]pyrido[2,1-f ][1,2,4]triazine-6,8-dione level at 15 mg/kg, po administered as single dose measured up to 24 hrs by LC-MS/MS analysis. It is filed as ADME, organism-based. To be noted: in vivo.
Data set [25] in a line: Tmax in CD1 mouse spleen assessed as (12aR)-12-(Diphenylmethyl)-7-hydroxy-3,4,12,12a-tetrahydro-1H-[1,4]oxazino[3,4-c]pyrido[2,1-f ][1,2,4]triazine-6,8-dione level at 15 mg/kg, po administered as single dose measured up to 24 hrs by LC-MS/MS analysis. To be noted: in vivo. It is filed as ADME, organism-based.
The nature of data set [26]: Cmax in CD1 mouse muscle assessed as (12aR)-12-(Diphenylmethyl)-7-hydroxy-3,4,12,12a-tetrahydro-1H-[1,4]oxazino[3,4-c]pyrido[2,1-f ][1,2,4]triazine-6,8-dione level at 15 mg/kg, po administered as single dose measured up to 24 hrs by LC-MS/MS analysis. It is filed as ADME, organism-based, Muscle tissue. Also on record: dose 15 mg/kg, route oral. The note with it: in vivo.

Molecules are shown by their SMILES.

Usually Tmax stands for the time from dosing to the highest level. The term Cmax denotes the peak of the concentration-time curve.

Regarding `COC(=O)OCOc1c2n(ccc1=O)N([C@@H]1c3ccccc3SCc3c1ccc(F)c3F)[C@@H]1COCCN1C2=O` [BALOXAVIR MARBOXIL], the Kel amounted to 0.18 h⁻¹ in data set [1], 0.21 h⁻¹ in data set [2] and 0.2 h⁻¹ in data set [5]. Moreover, the Tmax in data set [3] was 2 h. In addition, the results for the MRTlast in data set [4], in data set [8] and in [10] were 3.93 h, 1.58 h and 8.42 h, respectively. The t1/2 stood at 3.4 h in data set [6] and 11.3 h in [9]. For the same molecule, the Cmax in data set [7] turned out to be 277 ng/g; in data set [12], 388 ng/g. Moreover, the “Ratio AUC” value in [11] is on record as 0.7.

As to `COC(=O)OCOc1c2n(ccc1=O)N(C(c1ccccc1)c1ccccc1)[C@@H]1COCCN1C2=O`, the Activity result in [13] is “Non-Toxic”. In addition, the Cmax in data set [14] was determined as 875 ng/mL; in [26], 2005 ng/g. The values for the Kel in [15] and in [22] were 0.44 h⁻¹ and 0.14 h⁻¹, respectively. Moreover, the Tmax in data set [16], in data set [20], in data set [21] and in data set [25] was 0.5 h each time. Besides, in [17], the AUC amounted to 2861 ng·h/g. Moreover, in data set [18], the “Ratio AUC” value came out at 10.6. For the same molecule, in [19], the t1/2 is 2.57 h. Also, the MRTlast in [23] turned out to be 3.55 h. In data set [24], the AUClast amounted to 609 ng·h/g.

For the origin of these results see ChEMBL document CHEMBL4622979, “Non-rigid Diarylmethyl Analogs of Baloxavir as Cap-Dependent Endonuclease Inhibitors of Influenza Viruses” (J Med Chem, 2020).
